This test has as its system SARS-CoV-2 variants of concern (Alpha, Beta, Delta and Omicron). In words: microbe, parasite or virus in culture. Format: cell-based. The note with it: Severe acute respiratory syndrome coronavirus 2, VeroE6/TMPRSS2, read-out: EC50 against SARS-CoV-2 VOC.

pEC50: −log10 of the molar value.

Broadly, the pEC50 is the EC50 on a negative log10 scale, so that one unit is a factor of ten. Consider `O=C(Nc1ccccc1Cl)c1sc(=S)n2c1[nH]c(=O)c1ccccc12` [F0213], for which the pEC50 is 5.32 to 5.66.

These data come from article PMC8983325 (Protein & Cell, 2022).
